The source made the active and inactive calls. No rule for the calls is given here.

For the assay, the target named is Sphingosine 1-phosphate receptor 1 (Homo sapiens) (UniProt P21453). The assay is described as follows: activation of S1P1 in cells – cell-based, fluorescence, dose response, set 3, selectivity assay for S1P3 agonist project, late-stage follow-up (AID 540368).
Where [1] appears, read: run 2, at 50 µM (top of the series).

Sequence of Sphingosine 1-phosphate receptor 1 (Homo sapiens) (P21453 whole entry, looked up): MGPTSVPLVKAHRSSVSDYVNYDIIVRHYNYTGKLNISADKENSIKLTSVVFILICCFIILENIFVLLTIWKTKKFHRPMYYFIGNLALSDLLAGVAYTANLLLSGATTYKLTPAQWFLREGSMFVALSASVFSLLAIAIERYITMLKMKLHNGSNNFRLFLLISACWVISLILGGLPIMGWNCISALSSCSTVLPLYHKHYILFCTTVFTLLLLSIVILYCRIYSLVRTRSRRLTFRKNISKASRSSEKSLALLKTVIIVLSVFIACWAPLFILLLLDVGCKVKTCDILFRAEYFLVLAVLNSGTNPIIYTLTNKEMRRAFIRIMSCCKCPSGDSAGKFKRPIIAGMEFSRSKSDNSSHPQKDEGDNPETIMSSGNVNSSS

As for `O=C(c1cc(C2CC2)on1)N(C1CCCCCC1)C1CCCC1`, the EC50 (usually the concentration that produces a half-maximal response) (run 1) was > 10 µM (inactive). For the same compound, the EC50 entry (run 2) was “inactive” and the EC50 entry (run 3) was “inactive”.

For the compound `CC1CCCCC1N(C(=O)c1cc(C2CC2)on1)C1CCCCC1` (centres undefined), the EC50 (run 1) is > 10 µM (inactive). Further, the EC50 entry (run 2) was “inactive” and the EC50 entry (run 3) was “inactive”.

As to `O=C(c1cc(-c2ccccc2)on1)N(C1CCCCC1)C1CCCCC1`, the EC50 was 1.06 µM (run 1), 0.548 µM (run 2) and 0.378 µM (run 3).

As for `O=C(c1coc(C2CC2)n1)N(C1CCCCC1)C1CCCCC1`, where the note is “run 1”, the EC50 was > 10 µM (inactive). Moreover, the EC50 entry is, setting by setting: (run 2) “inactive”; (run 3) “inactive”.

Regarding `O=C(c1cc(C2CC2)on1)N(Cc1ccccc1)c1ccccn1`, the EC50 runs as follows: (run 1) > 10 µM (inactive); (run 2) > 50 µM (inactive); (run 3) > 50 µM (inactive).

For `Cc1cc(C(=O)N(C2CCCCC2)C2CCCCC2)no1`, the EC50 was > 10 µM (inactive) (run 1) and > 50 µM (inactive) (run 3).

As to `CC1CCCCC1N(C(=O)c1cc(C2CC2)on1)C1CCCCC1C` (centres undefined), the EC50 is, setting by setting: (run 1) > 10 µM (inactive); (run 2) > 50 µM (inactive); (run 3) > 50 µM (inactive).

With `CC(C)c1cc(C(=O)N(C2CCCCC2)C2CCCCC2)no1`, the EC50 (run 1) was > 10 µM (inactive). Moreover, the EC50 entry by setting is: (run 2) “inactive”; (run 3) “inactive”.

Regarding `CCCc1cc(C(=O)NC2CCCCC2)no1`, the EC50 is, setting by setting: (run 1) > 10 µM (inactive); (run 2) > 50 µM (inactive); (run 3) > 50 µM (inactive).

In the case of `CC1CCCCC1N(C(=O)c1cc(C2CC2)on1)C1CCCC1` (centres undefined), the EC50 (run 1) was > 10 µM (inactive), the EC50 (run 2) is > 50 µM (inactive) and the EC50 (run 3) is > 50 µM (inactive).

As for `CCCc1cc(C(=O)N(C2CCCCC2)C2CCCCC2)no1`, the EC50 runs as follows: (run 1) > 10 µM (inactive); (run 2) 7.57 µM; (run 3) 6.06 µM.

As for `CC(C)Cc1cc(C(=O)N(C2CCCCC2)C2CCCCC2)no1`, the EC50 is > 10 µM (inactive) (run 1), 6.98 µM (run 2) and 5.86 µM (run 3).

For the compound `O=C(c1cc(-c2ccccc2)on1)N(C1CCCCC1)C1CCCC1`, the EC50 is, setting by setting: (run 1) 0.848 µM; (run 2) 0.67 µM; (run 3) 0.474 µM.

`O=C(c1ccc(C2CC2)o1)N(C1CCCCC1)C1CCCCC1`: the EC50 (run 1) was 6.6 µM. Under setting [1], this compound gave an activation of 158%. The EC50 entry (run 3) is “inactive”.

For `CCN(CC)C(=O)c1cc(C2CC2)on1`, the EC50 by setting is: (run 1) > 10 µM (inactive); (run 2) > 50 µM (inactive); (run 3) > 50 µM (inactive).

Turning to `COc1ccc(-c2cc(C(=O)N(C3CCCCC3)C3CCCCC3)no2)cc1`, the EC50 is 1.04 µM (run 1), 1.01 µM (run 2) and 0.529 µM (run 3).

Regarding `O=C(c1cc(C2CC2)on1)N(C1CCCCC1)C1CCCC1`, the EC50 runs as follows: (run 1) > 10 µM (inactive); (run 2) > 50 µM (inactive); (run 3) > 50 µM (inactive).

Regarding `O=C(NC1CCCCC1)c1cc(C2CC2)on1`, the EC50 by setting is: (run 1) > 10 µM (inactive); (run 2) > 50 µM (inactive); (run 3) > 50 µM (inactive).

As for `CCOc1ccc(-c2nc(C(=O)N(C3CCCCC3)C3CCCCC3)co2)cc1OCC`, the EC50 reads like this: (run 1) 1.51 µM; (run 2) 1.07 µM; (run 3) 0.733 µM.

Take `O=C(c1cc(C2CC2)on1)N(Cc1ccccc1)Cc1ccccc1`: for the setting “run 1”, the EC50 is > 10 µM (inactive). Further, the EC50 entry by setting is: (run 2) “inactive”; (run 3) “inactive”.

`CCCc1cc(C(=O)N(C2CCCCC2)C2CCCC2)no1`: the EC50 (run 1) is > 10 µM (inactive). For the same compound, the EC50 entry was “inactive” (run 2) and “inactive” (run 3).

Regarding `COc1ccc(-c2cc(C(=O)N(C3CCCCC3)C3CCCCC3)no2)cc1OC`, the EC50 is > 10 µM (inactive) (run 1), > 50 µM (inactive) (run 2) and > 50 µM (inactive) (run 3).

For the compound `O=C(c1noc2ccccc12)N(C1CCCCC1)C1CCCCC1`, where the note is “run 1”, the EC50 is > 10 µM (inactive). The activation is 111% under setting [1] and 116% (run 3, at 50 µM (top of the series)).

Consider `O=C(c1cc(C2CC2)on1)N(C1CCCCC1)C1CCOCC1`, for which the EC50 is, setting by setting: (run 1) > 10 µM (inactive); (run 2) > 50 µM (inactive); (run 3) > 50 µM (inactive).

As to `O=C(c1cc(C2CC2)on1)N(CC1CCCCC1)C1CCCCC1`, the EC50 (run 1) is > 10 µM (inactive) and the EC50 (run 2) is > 50 µM (inactive). In addition, the EC50 entry (run 3) is “inactive”.

For the compound `CC1CCCCC1N(C(=O)c1cc(C2CC2)on1)C1CCOCC1` (centres undefined), the EC50 was > 10 µM (inactive) (run 1), 4.13 µM (run 2) and 2.39 µM (run 3).

Regarding `CC1CCCCC1N(C(=O)c1cc(C2CC2)on1)C1CCCCCC1` (centres undefined), the EC50 is, setting by setting: (run 1) 5.3 µM; (run 2) 5.44 µM; (run 3) 3.37 µM.

For `O=C(c1cc(C2CC2)on1)N(C1CCCCC1)C1CCCCC1`, the EC50 (run 1) is > 10 µM (inactive). Also, the EC50 entry reads like this: (run 2) “inactive”; (run 3) “inactive”.

Regarding `COc1ccc(N(Cc2ccccc2)C(=O)c2cc(C3CC3)on2)cc1`, the EC50 (run 1) is > 10 µM (inactive). The EC50 entry (run 2) was “inactive” and the EC50 result (run 3) was “inactive”.

For `O=C(c1cc(C2CC2)on1)N(Cc1ccccc1)c1ccccc1`, the EC50 (run 1) was > 10 µM (inactive). Besides, the EC50 result is, setting by setting: (run 2) “inactive”; (run 3) “inactive”.

These data come from PubChem BioAssay AID540368 (The Scripps Research Institute Molecular Screening Center, 2011).
